The structures appear in SMILES notation. In brackets after ≈: the same amount, converted by molar mass. Several values for one entry are separate records, joined by “and”; a condition that tells them apart may be missing. Identical values can stand only once. Like-named read-outs stand apart in the source and are kept apart here. Bounds are passed on as bounds.

Data set [1] concerns C. neoformans. The experiment in a line: microbe, parasite or virus in culture. It counts as cell-based. To be noted: for MIC80: Cryptococcus neoformans, read-out: C. neoformans (MIC80, μM).
Data set [2] concerns RVFV strain MP-12. In words: microbe, parasite or virus in culture. Format: cell-based, Rift Valley fever virus.
Data set [3] is described as follows: in vitro. To be noted: African green monkey.
Data set [4] has as its system E. coli. In words: microbe, parasite or virus in culture. Format: cell-based. To be noted: for MIC80: Escherichia coli, read-out: E. coli (MIC80, μM).
Data set [5] relates to Staphylo-coccus spp. The experiment in a line: organism not typed. Format: cell-based. The note with it: for MIC80: read-out: Staphylo-coccus spp. (MIC80, μM).
In data set [6] the target is T1, Human RNase H1 (Homo sapiens, UniProt O60930).
T1 construct: made in house; host or cells: E. coli
T1 sequence (O60930 1-286): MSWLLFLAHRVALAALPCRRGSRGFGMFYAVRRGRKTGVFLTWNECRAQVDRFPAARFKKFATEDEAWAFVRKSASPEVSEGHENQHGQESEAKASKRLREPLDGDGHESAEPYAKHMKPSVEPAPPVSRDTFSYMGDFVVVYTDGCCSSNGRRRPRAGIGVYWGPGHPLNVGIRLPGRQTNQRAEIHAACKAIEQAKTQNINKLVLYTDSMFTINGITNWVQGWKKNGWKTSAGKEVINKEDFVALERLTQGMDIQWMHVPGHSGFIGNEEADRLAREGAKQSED
The experiment in a line: biochemical.

The subject of data set [7] is LACV. The experiment in a line: microbe, parasite or virus in culture. Format: cell-based, La Crosse virus. The note with it: for EC50: read-out: LACV EC50.
A short description of data set [8]: in vitro. The note with it: human.
Data set [9] relates to RVFV ZH501. In words: microbe, parasite or virus in culture. Format: cell-based, Rift Valley fever virus.
The subject of data set [10] is RVFV MP-12. In words: microbe, parasite or virus in culture. It counts as cell-based, Rift Valley fever virus. The note with it: read-out: Estimated EC50.
Data set [11] deals with Vero cells.
In data set [12] the test system is RVFV strain MP-12. In words: microbe, parasite or virus in culture. It counts as cell-based, Rift Valley fever virus. The note with it: Rift Valley fever virus, A549, 24 h, read-out: A549 EC50.
The subject of data set [13] is ZIKV. The experiment in a line: microbe, parasite or virus in culture. Format: cell-based, Zika virus. The note with it: for EC50: read-out: ZIKV EC50.
Data set [14] in a line: in vitro. The note with it: human. The source holds these as a separate data set.
For data set [15], the system named is HepDES19.
The mark [16] stands for this setting: Rift Valley fever virus, Vero, read-out: RVFV (EC50, μM).
Setting [17] is: La Crosse virus, Vero C1008, 24 h.
Setting [18] is: Rift Valley fever virus, Vero, 24 h.
The mark [19] stands for this setting: Rift Valley fever virus, Vero, read-out: Vero EC50.
[20] abbreviates: Rift Valley fever virus, Vero, 18 h.

Consider `CC(C)c1ccc(O)c(=O)c(O)c1` [Compound 46, β-thujaplicinol, reference compound], for which the MIC80 in data set [1] is 8 µM (≈ 1.44 µg/mL); in data set [4], 44 µM (≈ 7.93 µg/mL); in data set [5], 20 µM (≈ 3.6 µg/mL). The concentration for a half-maximal effect (EC50) (commonly the concentration giving half of the maximal effect) in [2] (setting [16]) came out at 13.8 µM. This compound also gave a CC50 in [3] (CC50 Vero) of over 120 µM.

`Cc1cc(O)c(=O)c(O)cc1C(=O)c1cccs1` [Compound 308]: the IC50 – broadly, the concentration needed to halve the response being measured – in data set [6] was 46 µM. The “LACV EC50” value in [7] was “activity against LACV”. The EC50 in data set [7] (setting [17]) is 15.1 µM; in [2] (setting [18]), 1.2 µM; in [2] (setting [16]) it was 1.16 µM; in data set [2] (setting [19]), 1.2 µM; in [9] (setting [20]), 54 µM; in data set [10] (Rift Valley fever virus, Vero) it was 1.77 µM. The EC50 in [12] was 8.4 µM; in data set [13] (Zika virus, Vero C1008, 48 h) it was over 120 µM. Moreover, the MIC80 in [1] is 11 µM (≈ 2.89 µg/mL); in [4], 25 µM (≈ 6.56 µg/mL); in data set [5] it was 44 µM (≈ 11.5 µg/mL). The CC50 in data set [3] (Vero CC50) was over 120 µM; in data set [8] it was 119 µM; in data set [11] (African green monkey), 111 µM. Moreover, in data set [13], the “ZIKV EC50” value is on record as “not the unrelated flavivirus, Zika virus”.

On to `Cc1cc(O)c(=O)c(O)cc1C(=O)c1ccco1` [Compound 309], for which, in data set [7], the “LACV EC50” value was “activity against LACV”. The EC50 is 14.6 µM in data set [7] (setting [17]); 1.6 µM in data set [2] (setting [18]); 1.6 µM in [2] (setting [19]); 5.9 µM in [12]; over 120 µM in data set [13] (Zika virus, Vero C1008, 48 h). The figures for the CC50 in [3] (CC50), in data set [3] (Vero CC50) and in [8] were over 120 µM, over 120 µM and 98.1 µM, respectively. Further, in [13], the “ZIKV EC50” value is “not the unrelated flavivirus, Zika virus”.

Consider `Cc1cc(O)c(=O)c(O)cc1C(=O)c1ccccc1O` [Compound 359], for which the half-inhibitory concentration (IC50) in data set [6] worked out at 65 µM. Moreover, the MIC80 in [1] amounted to 24 µM (≈ 6.53 µg/mL). In addition, the EC50 was 5.1 µM in data set [2] (setting [18]) and 4 µM in data set [10] (Rift Valley fever virus, Vero). Also, the results for the CC50 in [3] (CC50) and in data set [14] were over 120 µM and 19.4 µM, respectively.

As to `Cc1cc(O)c(=O)c(O)c(O)c1C(=O)c1ccc(-c2ccccc2)cc1` [Compound 362], the IC50 in data set [6] turned out to be 212 µM. Besides, in data set [1], the MIC80 was determined as 24 µM (≈ 8.36 µg/mL). Also, the EC50 in data set [2] (setting [18]) was 2.5 µM; in [2] (setting [16]), 2.6 µM; in data set [10] (Rift Valley fever virus, Vero), 6 µM. Moreover, the results for the CC50 in data set [3] (CC50), in [14] and in data set [11] (African green monkey) were 80 µM, 5.4 µM and 77.8 µM, respectively.

On to `Cc1cc(O)c(=O)c(O)cc1C(=O)Nc1ccccc1` [Compound 389], for which the IC50 in [6] (read-out: Human RNase H1 (IC50)) came to 309 µM. In addition, the “C. neoformans (MIC80, μM)” value in data set [1] amounted to 3.5 µM. For the same compound, the EC50 was 8.8 µM in [2] (read-out: RVFV (EC50)) and 16 µM in data set [10]. Further, the “E. coli (MIC80, μM)” value in [4] worked out at 44 µM. Also, the “Staphylo-coccus spp. (MIC80, μM)” value in data set [5] worked out at 44 µM. The CC50 was over 120 µM in data set [11] and 26.5 µM in [15].

In data set [6], `O=C(Cc1ccccc1)Sc1cccccc1=O` [Compound 680] came in with an IC50 of 652 µM. Besides, the EC50 was 31.3 µM in data set [7] (setting [17]); 6.3 µM in [2] (setting [18]); 6.3 µM in data set [2] (setting [19]); 0.3 µM in data set [10] (Rift Valley fever virus, Vero); 11.6 µM in [12]; 19.5 µM in [13] (Zika virus, Vero C1008, 48 h). For the same compound, the EC50 in data set [13] was determined as 23 µM. The MIC80 is 0.4 µM (≈ 0.103 µg/mL) in [1], 30 µM (≈ 7.69 µg/mL) in data set [4] and 13 µM (≈ 3.33 µg/mL) in data set [5]. Besides, the CC50 in data set [3] (CC50) was over 120 µM; in data set [3] (Estimated CC50), 0.9 µM; in data set [3] (Vero CC50) it was over 120 µM.

As to `CCCCSc1ccc(SCCCC)c(O)c(=O)c1O` [Compound 694], the MIC80 in [1] stood at 2.3 µM (≈ 0.723 µg/mL); in data set [5], 9 µM (≈ 2.83 µg/mL). Also, the EC50 was 3.7 µM in data set [2] (setting [18]) and 5.62 µM in data set [10] (Rift Valley fever virus, Vero). Moreover, the CC50 in [3] (CC50) is over 120 µM; in data set [14] it was 1.8 µM; in data set [11] (African green monkey), 22.1 µM.

As for `CC(C)Sc1ccc(SC(C)C)c(O)c(=O)c1O` [Compound 696], the MIC80 in [1] worked out at 1.5 µM (≈ 0.43 µg/mL); in [4] it was 20 µM (≈ 5.73 µg/mL); in data set [5], 13 µM (≈ 3.72 µg/mL). Moreover, the EC50 is 6 µM in data set [2] (setting [18]) and 12 µM in data set [10] (Rift Valley fever virus, Vero). The compound also displayed a CC50 in data set [14] of 14.1 µM.

`O=c1c(O)cccc(SCc2ccccc2)c1O` [Compound 702] registered an IC50 in data set [6] of 34 µM. Also, the MIC80 in data set [1] was determined as 0.55 µM (≈ 0.143 µg/mL); in data set [4], 9 µM (≈ 2.34 µg/mL); in data set [5], 13 µM (≈ 3.38 µg/mL). For the same compound, the half-maximal effective concentration (EC50) in [2] (setting [18]) is 8.8 µM; in [10] (Rift Valley fever virus, Vero), 7 µM. The CC50 in data set [3] (CC50) is over 120 µM; in data set [3] (CC50 Vero) it was 35.6 µM.

In [6], `Cc1cc(O)c(=O)c(O)cc1C(=O)N1CCN(C(c2ccc(F)cc2)c2ccc(F)cc2)CC1` [Compound 1017] yielded an IC50 of 30 µM. Besides, in data set [1], the MIC80 turned out to be 6 µM (≈ 2.8 µg/mL). Further, the EC50 in [2] (setting [18]) is 8 µM; in data set [10] (Rift Valley fever virus, Vero) it was 3.44 µM. The CC50 was over 120 µM in data set [3] (CC50), 3.9 µM in data set [14] and 54.7 µM in data set [11] (African green monkey).

On to `O=c1nc(NO)ccn1[C@@H]1O[C@H](CO)[C@@H](O)[C@H]1O` [EIDD-1931, β-D-N4-Hydroxycytidine, reference compound], for which the EC50 was 3.6 µM in data set [7]; 5.16 µM and 5.2 µM in data set [2] (read-out: EC50); 30.5 µM in [9] (read-out: EC50); 5 µM in [10]; 1.7 µM and 1.74 µM in data set [13]. Besides, in [11], the CC50 is over 120 µM.

As to `NC(=O)c1ncn([C@@H]2O[C@H](CO)[C@@H](O)[C@H]2O)n1` [Ribavirin, reference compound], the EC50 in data set [2] (setting [18]) was 22 µM; in data set [9] (setting [20]), 73.6 µM; in data set [10] (Rift Valley fever virus, Vero), 22 µM. The compound further gave a CC50 in data set [3] (CC50) of over 120 µM.

Values taken from PMC9481026 (PLoS ONE, 2022).
